Reference: US6613572B2, “Agent for expression of long-term potentiation of synaptic transmission comprising compound having brain somatostatin activation property” (priority 1999, dated 2003)

What was measured:
[1] = test system: mossy fiber-CA3 field pyramidal cell of hippocampal slice; assay: LTP in mossy fiber-CA3 field pyramidal cell of hippocampal slice, population spikes after tetanic stimulation; type: cell-based, guinea pig
Protocol: Slices (thickness 500 μm, round slice) were prepared from hippocampus removed from male Hartley guinea pigs (body weight 220-350 g) and population spikes were extracellularly recorded. The hippocampal slices were perfused with an artificial cerebrospinal fluid (33-34° C., composition: NaCl, 124 mM; KCl, 5 mM; KH2PO4, 1.24 mM; MgSO4, 1.3 mM; CaCl2, 2.4 mM; NaHCO3, 26 mM; D-glucose, 10 mM) saturated with a mixed gas of oxygen (95%) and carbon dioxide (5%) at flow rate of 1.8-2.0 ml/min. Mossy fiber was stimulated with a stimulating electrode at a voltage of not more than 10 V, frequency of 0.2 Hz and the population spikes in the CA3 field pyramidal cell layer was recorded every 5 minutes. When the population spikes to be recorded were stabilized, tetanic stimulation for induction of LTP was applied. The tetanic stimulation includes stimulation at the same voltage of not more than 10 V, as when the stimulation was applied at a frequency of 0.2 Hz, but upon increase of the frequency to 33 Hz for 5 seconds. The height of from negative peak to the next positive peak of the obtained population spikes after stimulation was measured and taken as an amplitude (population spike amplitude; PSA). The degree of LTP was expressed by a potential variation (%) by the increase in the amplitude of population spikes after tetanic stimulation relative to the average of 4 measurements of the amplitudes of population spikes obtained before tetanic stimulation. Each value was expressed by mean±S.E.M (the number of slices tested was 3 to 8). As the index of the property of a drug, the area (%·min) between the graph from 12 minutes to 62 minutes after tetanic stimulation and the line where the potential variation is 0%, in the time lapse graph of potential variation, was calculated and taken as the magnitude of LTP. Compound 1 was dissolved in and diluted with distilled water and added to perfusate to the concentration of 10^−9 M, 10^−8 M, 10^−7 M and 10^−6 M, respectively, and applied to a hippocmpal slice for […] from 2 minutes before the tetanic stimulation to 4 minutes thereafter. Nothing was added to perfusate for control group.
The property of compound 1 relative to the magnitude of LTP was tested by one-way analysis of variance and Dunnett's multiple comparison test.

[2] = test system: voltage-dependent calcium channel of hippocampus pyramidal cells; assay: Voltage-dependent Ca2+ current of rat hippocampus pyramidal cell, whole cell patch-clamp; type: cell-based
Protocol: Hippocampal slices were prepared from the brains of 5- to 14-day-old male Wistar rats and the nerve cells were quickly isolated by trypsin enzyme treatment method. According to the whole cell patch-clamp method, the membrane potential of hippocampus pyramidal cell was fixed at −80 mV and the membrane potential-dependent […] current (Ica) was measured in Cs^+ electrode inner solution and Ba^2+ bath outer solution. The resistance of the electrode was 2-4 MΩ. Compound 1 was added to bath outer solution concentrations of 0.01 μM, 0.1 μM and 1.0 μM, respectively, and perfused with the bath outer solution. Nothing was added to the bath outer solution for the control group. The maximal value of the current (peak amplitude) was measured, and calculated as the variation (%) relative to the value before addition of compound 1. Each value (%) was expressed by mean±S.E.M. The number of measurements was 7. The property of compound 1 was evaluated by Dunnett's multiple comparison test relative to the control group.

[3] = test system: voltage-dependent calcium channel of hippocampus pyramidal cell; assay: Effect of somatostatin and compound 1 on voltage-dependent Ca2+ current of rat hippocampus pyramidal cell; type: cell-based; details: compound 1 10^-7 M plus somatostatin 10^-7 M
Protocol: Hippocampal slices were prepared from the brains of 5- to 14-day-old male Wistar rats and the nerve cells were quickly isolated by trypsin enzyme treatment method. According to the whole cell patch-clamp method, the membrane potential of hippocampus pyramidal cell was fixed at −80 mV and the membrane potential-dependent […] current (Ica) was measured in Cs^+ electrode inner solution and Ba^2+ bath outer solution. The resistance of the electrode was 2-4 MΩ. Compound 1 was added to bath outer solution concentrations of 0.01 μM, 0.1 μM and 1.0 μM, respectively, and perfused with the bath outer solution. Nothing was added to the bath outer solution for the control group. The maximal value of the current (peak amplitude) was measured, and calculated as the variation (%) relative to the value before addition of compound 1. Each value (%) was expressed by mean±S.E.M. The number of measurements was 7. The property of compound 1 was evaluated by Dunnett's multiple comparison test relative to the control group. […]

rat hippocampal slice = assay: Somatostatin release from rat hippocampal slice upon high K+ (50 mM) stimulation, radioimmunoassay; type: cell-based; details: property significant at 10^-7 M and 10^-6 M vs control (Dunnett)
Protocol: Rat hippocampal slices (thickness 350 μm, round slice) were prepared by a standard method. Twenty rat hippocampal slices were placed in a perfusion chamber, incubated at 37° C. and perfused by a batch method while exchanging the incubation buffer every 10 minutes. The incubation buffer used had the composition as noted below. A mixed gas of oxygen (95%) and carbon dioxide (5%) was used to saturate the buffer. Composition of incubation buffer: NaCl, 124 mM; KCl, 5 mM; KH2PO4, 1.24 mM; MgSO4, 1.3 mM; CaCl2, 2.4 mM; NaHCO3, 26 mM; D-glucose, 10 mM
Perfusion for 150 minutes gave fractions 1-15. To fraction 9 was applied a high K^+ (50 mM) stimulation. Compound 1 was added to fractions 7-15 to the concentration of 10^−9 M, 10^−7 M, […], 10^−6 M, respectively. […] The respective fractions thus obtained were concentrated by lyophilization and somatostatin in the perfusate was quantified by radioimmunoassay (RIA). After the completion of the experiment, somatostatin remaining in the slices was extracted by a conventional method and quantified by radioimmunoassay. The somatostatin amount released by high K^+ (50 mM) stimulation was calculated and the amount of somatostatin released due to the property of compound 1 was measured.
Somatostatin release (%) by compound 1 at each concentration was calculated as in the following. […] The number of the test samples measured was 10 or 11. […]

CC(=O)N1CCN(NC(=O)c2ccc(F)cc2)CC1.O [Compound 1, N-(4-acetyl-1-piperazinyl)-p-fluorobenzamide monohydrate]
potential variation after tetanic stimulation (magnitude of LTP, 12 to 62 min) ([1]; at 10^-7 M and 10^-6 M): increased potential variation
response of base before tetanic stimulation (potential variation) ([1]; before tetanic stimulation, compound applied to slice in perfusate): no significant influence
LTP enhancing property in hippocampal slice from guinea pig treated with cysteamine ([1]; cysteamine 200 mg/kg, compound 1 at 10^-7 M): did not show LTP enhancing property
concentration at which the action on LTP was maximal ([1]; tested at 10^-9 to 10^-6 M): 10^−7 M
membrane potential-dependent calcium current (variation of peak amplitude) ([2]; 0.01 μM, 0.1 μM and 1.0 μM, compared to control group, holding -80 mV): significantly promoted
shape of dose dependency of the calcium current promotion ([2]; 0.01 to 1.0 μM): bell-shape dose dependency
suppressive property of somatostatin on calcium current in the presence of compound 1 [3]: completely released
somatostatin release (%) (rat hippocampal slice): promoted somatostatin release
